# Data from patent publication US7718684B2, “Methods and materials for assessing prostate cancer therapies and compounds” (The Regents of the University of California, priority 2004, dated 2010).
# Assays:
# AR LBD = details: cited from earlier work
# [1] = system: prostate-specific antigen (PSA) produced by LNCaP cells; test: PSA produced by LNCaP cells; format: cell-based, human
# [2] = system: LNCaP cells infected with the empty vector; test: In vitro growth of LNCaP vector cells in low androgen; format: cell-based, human; details: steroid-depleted
# LNCaP-AR cells [3] = test: In vitro growth of LNCaP-AR cells (low androgen / bicalutamide)
# [4] = biological target: AR transcription complex on the promoters of PSA and KLK2 in LNCaP cells (Homo sapiens, UniProt P10275, T878A)
# LNCaP-AR cells [5] = test: Microarray of induced genes in LNCaP-AR cells; format: cell-based, human
# [6] = system: PSA expression in LAPC4 cells expressing increased levels of AR; test: PSA expression in LAPC4 cells with increased AR; details: androgen-starved
# [7] = system: LNCaP cells infected with the empty-vector control; test: Microarray of induced genes in LNCaP control cells; format: cell-based, human; details: 10 μM
# [8] = system: PSA mRNA and protein expression in parental LAPC4 cells; test: PSA expression in parental LAPC4 cells; details: androgen-starved
# Sequence of AR transcription complex on the promoters of PSA and KLK2 in LNCaP cells (P10275 whole entry T878A, one chain of several): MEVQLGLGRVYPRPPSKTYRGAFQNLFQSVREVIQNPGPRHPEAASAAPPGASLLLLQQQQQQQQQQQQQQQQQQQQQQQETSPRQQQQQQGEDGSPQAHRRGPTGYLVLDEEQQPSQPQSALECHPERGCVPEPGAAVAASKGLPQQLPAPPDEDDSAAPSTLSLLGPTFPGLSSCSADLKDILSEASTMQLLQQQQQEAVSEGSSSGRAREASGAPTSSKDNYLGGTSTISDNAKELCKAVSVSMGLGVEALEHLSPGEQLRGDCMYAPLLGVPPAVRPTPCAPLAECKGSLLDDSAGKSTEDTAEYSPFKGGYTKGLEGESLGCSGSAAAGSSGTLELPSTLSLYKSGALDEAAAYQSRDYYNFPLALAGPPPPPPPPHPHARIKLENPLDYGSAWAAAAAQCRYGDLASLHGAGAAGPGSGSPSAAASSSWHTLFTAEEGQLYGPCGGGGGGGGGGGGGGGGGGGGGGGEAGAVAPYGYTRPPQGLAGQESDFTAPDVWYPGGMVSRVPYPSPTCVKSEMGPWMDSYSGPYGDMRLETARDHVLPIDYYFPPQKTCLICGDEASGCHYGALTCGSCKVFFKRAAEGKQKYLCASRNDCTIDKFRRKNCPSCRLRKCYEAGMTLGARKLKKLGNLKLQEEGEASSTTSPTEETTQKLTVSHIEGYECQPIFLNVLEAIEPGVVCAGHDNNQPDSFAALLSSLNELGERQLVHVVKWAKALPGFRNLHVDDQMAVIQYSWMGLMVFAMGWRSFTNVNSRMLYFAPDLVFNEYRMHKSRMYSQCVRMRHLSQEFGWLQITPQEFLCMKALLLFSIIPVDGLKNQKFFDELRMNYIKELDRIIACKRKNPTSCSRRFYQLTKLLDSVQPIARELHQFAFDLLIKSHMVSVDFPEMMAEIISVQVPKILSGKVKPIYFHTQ
smiles,measurement,setting,value
CC1(C)C(=O)N(c2ccc(C#N)c(C(F)(F)F)c2)C(=S)N1CCCCO [RU59063],binding to AR LBD compared with drugs such as bicalutamide,AR LBD,more potent binders of the AR LBD
CC1(C)C(=O)N(c2ccc(C#N)c(C(F)(F)F)c2)C(=S)N1c1ccc(N=[N+]=[N-])cc1 [Compound 5],antagonist character,"[1]; LNCaP cells, PSA",full antagonists
same,IC50 for PSA expression compared with bicalutamide,"[1]; LNCaP cells, relative to bicalutamide",ten-fold lower
same,agonist and antagonist effects,[1]; initial screening and biological testing,best antagonist effects without any strong agonist effects
"C[C@]1(O)CC[C@H]2[C@@H]3CCC4=CC(=O)CCC4=C3C=C[C@@]21C [Compound R1881, R1881]",concentration needed for growth in charcoal-stripped serum,[2],100 pM
same,lower concentration supporting growth versus vector cells,"LNCaP-AR cells [3]; charcoal-stripped serum, relative to vector cells",at least 80%
same,recruitment of AR and polymerase II to promoters,[4],AR and polymerase II were recruited to both promoters regardless of AR level
CC(O)(CS(=O)(=O)c1ccc(F)cc1)C(=O)Nc1ccc(C#N)c(C(F)(F)F)c1 (stereo not shown) [bicalutamide],growth in the presence of the antiandrogen,LNCaP-AR cells [3]; LNCaP-AR cells,resistant
same,probe sets induced,"LNCaP-AR cells [5]; 10 μM, 2-fold increase, P<0.05, 500 minimum expression",48 probe sets
same,subset of total androgen-regulated genes induced,LNCaP-AR cells [5]; of >600 androgen-regulated probe sets,< 10%
same,effect on PSA expression,[6],functioned as an agonist
same,probe sets induced,[7],no elements were significantly upregulated
same,effect on PSA mRNA and protein expression,[8],typical antagonist activity
